{"source": "patent US20180078609A1", "about": "“METHODS AND COMPOSITIONS FOR TREATING ALZHEIMER'S DISEASE AND OTHER MEMORY-ASSOCIATED DISORDERS AND CONDITIONS” (Massachusetts Institute of Technology, priority 2016, published 2018)", "key": {"early AD mice": {"tested_on": "early AD mice", "assay": "Contextual fear conditioning memory recall (freezing) after in vivo optical LTP", "set-up": "species or system mouse", "from_the_text": "Two distinct contexts were employed [Ryan, T. J., et al. (2015) Science 348, 1007-1013]. Context A was 29×25×22 cm chambers with grid floors, opaque triangular ceilings, red lighting, and scented with 1% acetic acid. Four mice were run simultaneously in four identical context A chambers. Context B consisted of four 30×25×33 cm chambers with perspex floors, transparent square ceilings, bright white lighting, and scented with 0.25% benzaldehyde. All mice were conditioned in context A (two 0.60 mA shocks of 2 s duration in 5 min), and tested (3 min) in contexts A and B 1 day later. […] Floors of chambers were cleaned with quatricide before and between runs. Mice were transported to and from the experimental room in their home cages using a wheeled cart. The cart and cages remained in an anteroom to the experimental rooms during all behavioral experiments. For engram labeling, mice were kept on regular food without DOX for 24 h before training. When training was complete, mice were switched back to food containing 40 mg kg^−1 DOX.\n(§1) One day after CFC training and engram labelling (DG plus PP terminals) in control and early AD groups, mice were placed in an open field arena (52×26 cm) after patch cords were fitted to the fiber implants. […]"}, "DG engram cells [1]": {"tested_on": "DG engram cells", "assay": "Dendritic spine density analysis of DG engram cells after in vivo optical LTP", "set-up": "species or system mouse", "conditions": "early AD mice treated with anisomycin after LTP induction", "procedure": "Engram cells were labelled using c-Fos-tTA-driven synthesis of ChR2-eYFP or eYFP alone. The eYFP signal was amplified using immunohistochemistry procedures, after which fluorescence z-stacks were taken by confocal microscopy (Zeiss LSM700) using a×40 objective. Maximum intensity projections were generated using ZEN Black software (Zeiss). Four mice per experimental group were analyzed for dendritic spines. For each mouse, 30-40 dendritic fragments of 10-μm length were quantified (n=120-160 fragments per group). To measure spine density of DG engram cells with a focus on entorhinal cortical inputs, distal dendritic fragments in the middle-to-outer molecular layer (ML) were selected. For CA3 and CA1 engram cells, apical and basal dendritic fragments were selected. To compute spine density, the number of spines counted on each fragment was normalized by the cylindrical approximation of the surface of the specific fragment. Experiments were conducted blind to experimental group. Researcher 1 imaged dendritic fragments and randomized images, while researcher 2 performed manual spine counting.\nas §1"}, "DG": {"tested_on": "DG", "assay": "Kainic acid seizure-induced ChR2-eYFP labelling", "type": "in vivo, mouse", "conditions": "1 day off DOX; 15 mg kg−1 i.p. kainic acid", "procedure": "For seizure experiments [Liu, X., et al. (2012) Nature 484, 381-385], mice were taken off DOX for 1 day and injected intraperitoneally with 15 mg kg^−1 kainic acid (KA). Mice were returned to DOX food 6 h after KA treatment and perfused the next day for immunohistochemistry procedures.\nTo characterize the expression pattern of ChR2-eYFP, DTR-eYFP, eYFP alone and oChIEF-tdTomato in control and AD mice, the number of eYFP^+/tdTomato^+ neurons were counted from 4-5 coronal slices per mouse (n=3-5 mice per group). Coronal slices centered on coordinates covered by optic fiber implants were taken for DG quantification and sagittal slices centered on injection coordinates were taken for MEC and LEC. Fluorescence images were acquired using a Zeiss Axiolmager.Z1/ApoTome microscope (×20). […] The number of eYFP^+/tdTomato^+ cells per section was calculated by applying a threshold above background fluorescence. Data were analyzed using Microsoft Excel with the Statplus plug-in. A similar approach was applied for quantifying amyloid-3 plaques, c-Fos^+ neurons and adult newborn (DCX^+) neurons. Total engram cell reactivation was calculated as ((c-Fos^+ eYFP^+)/(total DAPI^+))×100. Chance overlap was calculated as ((c-Fos^+/total DAPI^+)×(eYFP^+/total DAPI^+))×100. Percentage of adult newborn neurons expressing neuronal markers was calculated as ((NeuN^+ DCX^+)/(total DCX^+))×100. […]"}, "DG engram cells [2]": {"tested_on": "DG engram cells", "assay": "DTR-mediated ablation of engram cells, DTR-eYFP cell counts", "type": "in vivo, mouse", "conditions": "DTR-expressing DG engram cells after DT administration", "procedure": "Mice were dispatched using 750-1,000 mg kg^−1 avertin and perfused transcardially with PBS, followed by 4% paraformaldehyde (PFA). Brains were extracted and incubated in 4% PFA at room temperature overnight. Brains were transferred to PBS and 50 μm coronal slices were prepared using a vibratome. For immunostaining [Ryan, T. J., et al. (2015) Science 348, 1007-1013], each slice was placed in PBS+0.2% Triton X-100 (PBS-T), with 5% normal goat serum for 1 h and then incubated with primary antibody at 4° C. for 24 h. Slices then underwent three wash steps for 10 min each in PBS-T, followed by 1 h incubation with secondary antibody. […]\nTo characterize the expression pattern of ChR2-eYFP, DTR-eYFP, eYFP alone and oChIEF-tdTomato in control and AD mice, the number of eYFP^+/tdTomato^+ neurons were counted from 4-5 coronal slices per mouse (n=3-5 mice per group). Coronal slices centered on coordinates covered by optic fiber implants were taken for DG quantification and sagittal slices centered on injection coordinates were taken for MEC and LEC. Fluorescence images were acquired using a Zeiss Axiolmager.Z1/ApoTome microscope (×20). […] The number of eYFP^+/tdTomato^+ cells per section was calculated by applying a threshold above background fluorescence. Data were analyzed using Microsoft Excel with the Statplus plug-in. […]"}, "DG mossy cells": {"tested_on": "DG mossy cells", "assay": "Calretinin (CR+) staining of mossy cell axons after engram cell ablation", "type": "in vivo, mouse", "conditions": "after DT administration", "procedure": "Mice were dispatched using 750-1,000 mg kg^−1 avertin and perfused transcardially with PBS, followed by 4% paraformaldehyde (PFA). Brains were extracted and incubated in 4% PFA at room temperature overnight. Brains were transferred to PBS and 50 μm coronal slices were prepared using a vibratome. For immunostaining [Ryan, T. J., et al. (2015) Science 348, 1007-1013], each slice was placed in PBS+0.2% Triton X-100 (PBS-T), with 5% normal goat serum for 1 h and then incubated with primary antibody at 4° C. for 24 h. Slices then underwent three wash steps for 10 min each in PBS-T, followed by 1 h incubation with secondary antibody. After three more wash steps of 10 min each in PBS-T, slices were mounted on microscope slides. All analyses were performed blind to the experimental conditions. Antibodies used for staining were as follows: to stain for ChR2-eYFP, DTR-eYFP or eYFP alone, slices were incubated with primary chicken anti-GFP (1:1,000, Life Technologies) and visualized using anti-chicken Alexa-488 (1:200). For plaques, slices were stained using primary mouse anti-β-amyloid (1:1,000; Sigma-Aldrich) and secondary anti-mouse Alexa-488 (1:500). c-Fos was stained with rabbit anti-c-Fos (1:500, Calbiochem) and anti-rabbit Alexa-568 (1:300). Adult newborn neurons were stained with guinea pig anti-DCX (1:1,000; Millipore) and anti-guinea-pig Alexa-555 (1:500). […]"}}}
{"compound": "COc1ccc(C[C@H]2NC[C@H](O)[C@H]2OC(C)=O)cc1", "note": "[anisomycin]", "values": [{"measurement": "Memory recall freezing vs saline-treated AD mice", "setting": "early AD mice; AD+100 Hz+Aniso, 2 days after LTP induction followed by drug administration, 75 mg kg−1 i.p. twice", "value": "less freezing"}, {"measurement": "Average dendritic spine density vs saline-treated AD mice", "setting": "DG engram cells [1]", "value": "decreased"}]}
{"compound": "C=C(C)[C@H]1CN[C@H](C(=O)O)[C@H]1CC(=O)O", "note": "[kainic acid]", "values": [{"measurement": "ChR2-eYFP labelling after seizures", "setting": "DG", "value": "efficient labelling throughout the DG"}]}
{"compound": "diphtheria toxin", "values": [{"measurement": "Memory recall freezing vs saline-treated mice", "setting": "early AD mice; AD rescue+DTR+DT, after optical LTP spine restoration", "value": "less freezing"}, {"measurement": "Ablation of DG engram cells", "setting": "DG engram cells [2]", "value": "efficiently ablated DG engram cells"}, {"measurement": "Effect on nearby DG mossy cells", "setting": "DG mossy cells", "value": "intact"}]}
